Measurements reported in ChEMBL document CHEMBL4190255, “Novel celastrol derivatives with improved selectivity and enhanced antitumour activity: Design, synthesis and biological evaluation” (Eur J Med Chem, 2017).
Values belong to the compound of their own block, whether it stands above or below them. Activity calls are given as the source filed them. No cut-off for these calls is given here.

Experiments:
A549 [1] = assay: Antiproliferative activity against human A549 cells after 72 hrs by MTT assay; assay type: functional, cell-based; details: A549, 72 h
MIA PaCa-2 = assay: Antiproliferative activity against human MIAPaCa2 cells after 72 hrs by MTT assay; assay type: functional, cell-based; details: MIA PaCa-2, 72 h
SK-OV-3 [2] = assay: Induction of apoptosis in human SKOV3 assessed as decrease in procaspase-3 levels at IC50 concentration after 72 hrs by Western blot analysis; assay type: functional, cell-based
SK-OV-3 [3] = assay: Induction of apoptosis in human SKOV3 cells assessed as early apoptotic cells at IC50 concentration after 72 hrs by Annexin V-FITC/propidium iodide double staining based flow cytometry (reference value: 4.7%); assay type: functional
[4] = Selectivity index, ratio of IC50 for human BJ cells to IC50 for human MIAPaCa2 cells; assay type: toxicity; details: BJ cells versus MIAPaCa2 cells, read-out: Ratio IC50
BJ = assay: Cytotoxicity against human BJ cells assessed as reduction in cell viability after 72 hrs by MTT assay; assay type: cell-based
SK-OV-3 [5] = assay: Induction of apoptosis in human SKOV3 cells at IC50 concentration by Annexin V-FITC/propidium iodide double staining based flow cytometry; assay type: functional, cell-based; details: TDE = time-dependent effect
SK-OV-3 [6] = assay: Potentiation of cisplatin-induced cytotoxicity in human SKOV3 cells assessed as combination index by measuring reduction in cell viability at 0.6 uM after 72 hrs by MTT assay; assay type: functional
SK-OV-3 [7] = assay: Induction of apoptosis in human SKOV3 assessed as effect on t-bid levels at IC50 concentration after 72 hrs by Western blot analysis; assay type: functional, cell-based
SK-OV-3 [8] = assay: Induction of apoptosis in human SKOV3 cells assessed as reduction in mutant p53 levels at IC50 concentration after 72 hrs by Western blot analysis; assay type: functional, cell-based
SK-OV-3 [9] = assay: Potentiation of cisplatin-induced cytotoxicity in human SKOV3 cells assessed as combination index by measuring reduction in cell viability at 4.8 uM after 72 hrs by MTT assay; assay type: functional
A549 [10] = assay: Effect on wild-type p53 expression in human A549 cells at IC50 concentration after 72 hrs by Western blot analysis; assay type: ADME, cell-based; details: a549, 72 h
SK-OV-3 [11] = assay: Induction of apoptosis in human SKOV3 assessed as increase in cleaved PARP levels at IC50 concentration after 72 hrs by Western blot analysis; assay type: functional, cell-based
SK-OV-3 [12] = assay: Induction of apoptosis in human SKOV3 cells at IC50 concentration after 24 hrs by Annexin V-FITC/propidium iodide double staining based flow cytometry; assay type: functional, cell-based
SK-OV-3 [13] = assay: Induction of apoptosis in human SKOV3 cells assessed as chromatin condensation at IC50 concentration after 48 hrs by Hoechst 33342 staining-based fluorescence microscopy; assay type: functional, cell-based
SK-OV-3 [14] = assay: Induction of apoptosis in human SKOV3 cells assessed as cell shrinkage at IC50 concentration after 48 hrs by Hoechst 33342 staining-based fluorescence microscopy; assay type: functional
[15] = Selectivity index, ratio of IC50 for human BJ cells to IC50 for human SKOV3 cells; assay type: toxicity; details: BJ cells versus SKOV3 cells, read-out: Ratio IC50
[16] = target: T1, Heat shock protein HSP90 (Homo sapiens) (UniProt P07900+P08238); assay: Inhibition of HSP90 in human SKOV3 cells assessed as decrease in phosphorylated Akt levels at IC50 concentration after 72 hrs by Western blot analysis; assay type: cell-based
SK-OV-3 [17] = assay: Potentiation of cisplatin-induced cytotoxicity in human SKOV3 cells assessed as combination index by measuring reduction in cell viability at 1.2 uM after 72 hrs by MTT assay; assay type: functional
SK-OV-3 [18] = assay: Effect on total mTOR levels in human SKOV3 cells at IC50 concentration after 72 hrs by Western blot analysis; assay type: ADME, cell-based; details: sk-ov-3, 72 h
SK-OV-3 [19] = assay: Induction of apoptosis in human SKOV3 assessed as effect on bax levels at IC50 concentration after 72 hrs by Western blot analysis; assay type: functional, cell-based
[20] = target: T1, Heat shock protein HSP90 (Homo sapiens); assay: Inhibition of HSP90 protein levels in human SKOV3 cells at IC50 concentration after 72 hrs by Western blot analysis; assay type: cell-based
SK-OV-3 [21] = assay: Antiproliferative activity against human SKOV3 cells after 72 hrs by MTT assay; assay type: functional, cell-based; details: SK-OV-3, 72 h
SK-BR-3 = assay: Antiproliferative activity against human SKBR3 cells after 72 hrs by MTT assay; assay type: functional, cell-based; details: SK-BR-3, 72 h
SK-OV-3 [22] = assay: Induction of apoptosis in human SKOV3 assessed as effect on bid levels at IC50 concentration after 72 hrs by Western blot analysis; assay type: functional, cell-based
SK-OV-3 [23] = assay: Cell cycle arrest in human SKOV3 cells assessed as accumulation at G2/M phase at IC50 concentration after 24 to 72 hrs by propidium iodide-based flow cytometry; assay type: functional
SK-OV-3 [24] = assay: Induction of apoptosis in human SKOV3 assessed as effect on caspase-9 levels at IC50 concentration after 72 hrs by Western blot analysis; assay type: functional, cell-based
SK-OV-3 [25] = assay: Potentiation of cisplatin-induced cytotoxicity in human SKOV3 cells assessed as combination index by measuring reduction in cell viability at 2.4 uM after 72 hrs by MTT assay; assay type: functional
SK-OV-3 [26] = assay: Induction of apoptosis in human SKOV3 assessed as increase in cleaved caspase-8 levels at IC50 concentration after 72 hrs by Western blot analysis; assay type: functional, cell-based
SK-OV-3 [27] = assay: Potentiation of cisplatin-induced cytotoxicity in human SKOV3 cells assessed as combination index by measuring reduction in cell viability at 0.15 uM after 72 hrs by MTT assay; assay type: functional
MDA-MB-231 = assay: Antiproliferative activity against human MDA-MB-231 cells after 72 hrs by MTT assay; assay type: functional, cell-based; details: MDA-MB-231, 72 h
[28] = target: T1, Heat shock protein HSP90 (Homo sapiens); assay: Inhibition of HSP90 in human SKOV3 cells assessed as decrease in phosphorylated mTOR levels at IC50 concentration after 72 hrs by Western blot analysis; assay type: cell-based
SK-OV-3 [29] = assay: Induction of apoptosis in human SKOV3 cells assessed as reduction in cell density at IC50 concentration after 48 hrs by Hoechst 33342 staining-based fluorescence microscopy; assay type: functional
SK-OV-3 [30] = assay: Induction of apoptosis in human SKOV3 cells assessed as early apoptotic cells at IC50 concentration after 48 hrs by Annexin V-FITC/propidium iodide double staining based flow cytometry (reference value: 4.5%); assay type: functional
SK-OV-3 [31] = assay: Effect on total Akt levels in human SKOV3 cells at IC50 concentration after 72 hrs by Western blot analysis; assay type: ADME, cell-based; details: sk-ov-3, 72 h
SK-OV-3 [32] = assay: Induction of apoptosis in human SKOV3 cells assessed as formation of apoptotic bodies at IC50 concentration after 48 hrs by Hoechst 33342 staining-based fluorescence microscopy; assay type: functional, cell-based
[33] = Selectivity index, ratio of IC50 for human BJ cells to IC50 for human A549 cells; assay type: toxicity; details: BJ cells versus A549 cells, read-out: Ratio IC50
SK-OV-3 [34] = assay: Cell cycle arrest in human SKOV3 cells assessed as accumulation at S phase at IC50 concentration after 24 to 72 hrs by propidium iodide-based flow cytometry; assay type: functional
SK-OV-3 [35] = assay: Induction of apoptosis in human SKOV3 assessed as effect on bcl2 levels at IC50 concentration after 72 hrs by Western blot analysis; assay type: functional, cell-based
SK-OV-3 [36] = assay: Induction of apoptosis in human SKOV3 assessed as decrease in procaspase-8 levels at IC50 concentration after 72 hrs by Western blot analysis; assay type: functional, cell-based
SK-OV-3 [37] = assay: Potentiation of cisplatin-induced cytotoxicity in human SKOV3 cells assessed as combination index by measuring reduction in cell viability at 0.3 uM after 72 hrs by MTT assay; assay type: functional
SK-OV-3 [38] = assay: Cell cycle arrest in human SKOV3 cells assessed as accumulation at G0/G1 phase at IC50 concentration after 24 to 72 hrs by propidium iodide-based flow cytometry; assay type: functional

- IC50 (A549 [1]): 2890 nM
- IC50 (MIA PaCa-2): 1410 nM
Structure (SMILES): CC(=O)Oc1cc2c(c(C)c1OC(C)=O)CC=C1[C@@]2(C)CC[C@@]2(C)[C@@H]3C[C@](C)(N=C=O)CC[C@]3(C)CC[C@]12C

- IC50 (A549 [1]): > 15000 nM
- IC50 (MIA PaCa-2): > 5000 nM
Structure (SMILES): CC(=O)Oc1cc2c(c(C)c1OC(C)=O)C(=O)C=C1[C@@]2(C)CC[C@@]2(C)[C@@H]3C[C@](C)(N=C=O)CC[C@]3(C)CC[C@]12C

- IC50 (A549 [1]): 3500 nM
- IC50 (MIA PaCa-2): 850 nM
Structure (SMILES): CC1=C(O)C(=O)C=C2C1=CC=C1[C@@]2(C)CC[C@@]2(C)[C@@H]3C[C@](C)(NC(=O)NO)CC[C@]3(C)CC[C@]12C

Structure (SMILES): Cc1c(O)c(O)cc2c1C(=O)C=C1[C@@]2(C)CC[C@@]2(C)[C@@H]3C[C@](C)(NC(N)=O)CC[C@]3(C)CC[C@]12C
- IC50 (A549 [1]): > 15000 nM
- IC50 (MIA PaCa-2): > 5000 nM

- IC50 (A549 [1]): 1270 nM
- IC50 (MIA PaCa-2): 350 nM
- inhibition [16]: Active
- inhibition [20]: Active
- IC50 (SK-OV-3 [21]): 560 nM
- IC50 (SK-BR-3): 780 nM
- IC50 (MDA-MB-231): 1150 nM
- inhibition [28]: Active
Structure (SMILES): CC1=C(O)C(=O)C=C2C1=CC=C1[C@@]2(C)CC[C@@]2(C)[C@@H]3C[C@](C)(NC(=O)NCCc4cccc(Cl)c4)CC[C@]3(C)CC[C@]12C
- Activity (SK-OV-3 [2]): Active
- Activity (SK-OV-3 [3]): 31.8%
- selectivity ratio [4]: 9.31
- IC50 (BJ): 3290 nM
- Activity (SK-OV-3 [5]): Tde
- CI (SK-OV-3 [6]): 1.44
- Activity (SK-OV-3 [7]): inactive
- Activity (SK-OV-3 [8]): Active
- CI (SK-OV-3 [9]): 0.7102
- Activity (A549 [10]): Non-Toxic
- Activity (SK-OV-3 [11]): Active
- Activity (SK-OV-3 [12]): inactive
- Activity (SK-OV-3 [13]): Active
- Activity (SK-OV-3 [14]): Active
- selectivity ratio [15]: 5.81
- CI (SK-OV-3 [17]): 0.6855
- Activity (SK-OV-3 [18]): Non-Toxic
- Activity (SK-OV-3 [19]): inactive
- Activity (SK-OV-3 [22]): inactive
- Activity (SK-OV-3 [23]): inactive
- Activity (SK-OV-3 [24]): inactive
- CI (SK-OV-3 [25]): 0.575
- Activity (SK-OV-3 [26]): Active
- CI (SK-OV-3 [27]): 1.047
- Activity (SK-OV-3 [29]): Active
- Activity (SK-OV-3 [30]): 15%
- Activity (SK-OV-3 [31]): Non-Toxic
- Activity (SK-OV-3 [32]): Active
- selectivity ratio [33]: 2.59
- Activity (SK-OV-3 [34]): inactive
- Activity (SK-OV-3 [35]): inactive
- Activity (SK-OV-3 [36]): Active
- CI (SK-OV-3 [37]): 1.374
- Activity (SK-OV-3 [38]): inactive

Structure (SMILES): Cc1c(O)c(O)cc2c1C(=O)C=C1[C@@]2(C)CC[C@@]2(C)[C@@H]3C[C@](C)(C(=O)O)CC[C@]3(C)CC[C@]12C
- IC50 (A549 [1]): > 15000 nM
- IC50 (MIA PaCa-2): > 5000 nM

- IC50 (A549 [1]): 1660 nM
- IC50 (MIA PaCa-2): 410 nM
Structure (SMILES): CC1=C(O)C(=O)C=C2C1=CC=C1[C@@]2(C)CC[C@@]2(C)[C@@H]3C[C@](C)(NC(=O)NCCc4ccccc4)CC[C@]3(C)CC[C@]12C

- IC50 (A549 [1]): 2270 nM
- IC50 (MIA PaCa-2): 400 nM
Structure (SMILES): CC1=C(O)C(=O)C=C2C1=CC=C1[C@@]2(C)CC[C@@]2(C)[C@@H]3C[C@](C)(NC(=O)Nc4ccccc4)CC[C@]3(C)CC[C@]12C

- IC50 (A549 [1]): 1440 nM
- IC50 (MIA PaCa-2): 310 nM
Structure (SMILES): CCCCNC(=O)N[C@]1(C)CC[C@]2(C)CC[C@]3(C)C4=CC=C5C(=CC(=O)C(O)=C5C)[C@]4(C)CC[C@@]3(C)[C@@H]2C1
- selectivity ratio [4]: 6.94
- IC50 (BJ): 2120 nM
- selectivity ratio [33]: 1.48

- IC50 (A549 [1]): 2480 nM
- IC50 (MIA PaCa-2): 630 nM
Structure (SMILES): CC1=C(O)C(=O)C=C2C1=CC=C1[C@@]2(C)CC[C@@]2(C)[C@@H]3C[C@](C)(NC(N)=O)CC[C@]3(C)CC[C@]12C
